Reference: ChEMBL document CHEMBL4020763, “N-(1H-Pyrazol-3-yl)quinazolin-4-amines as a novel class of casein kinase 1δ/ε inhibitors: Synthesis, biological evaluation and molecular modeling studies” (Bioorg Med Chem Lett, 2017)

Assays:
DU-145 = assay: Growth inhibition of human DU145 cells at 100 uM by MTT assay relative to control; type: functional; conditions: read-out: GI
MDA-MB-231 [1] = assay: Growth inhibition of human MDA-MB-231 cells at 100 uM by MTT assay relative to control; type: functional; conditions: read-out: GI
BT-20 [2] = assay: Cytotoxicity against human BT20 cells by MTT assay; type: functional, cell-based
MDA-MB-468 [3] = assay: Growth inhibition of human MDA-MB-468 cells at 100 uM by MTT assay relative to control; type: functional; conditions: read-out: GI
ZR-75-1 [4] = assay: Cytotoxicity against human ZR-75-1 cells by MTT assay; type: functional, cell-based
PANC-1 [5] = assay: Cytotoxicity against human PANC1 cells by MTT assay; type: functional, cell-based
ZR-75-30 [6] = assay: Cytotoxicity against human ZR-7530 cells by MTT assay; type: functional, cell-based
[7] = target: Dual specificity protein kinase CLK1 (Mus musculus) (UniProt P22518); assay: Inhibition of recombinant mouse GST-fused CLK1 expressed in Escherichia coli at 10 uM using RS peptide as substrate after 30 mins in presence of ATP by scintillation counting method relative to control
[8] = Inhibition of M-phase starfish oocytes CDK1/cyclin B using histone H1 as substrate after 30 mins in presence of ATP by scintillation counting method; parameters: species or system Asteroidea
MDA-MB-231 [9] = assay: Cytotoxicity against human MDA-MB-231 cells by MTT assay; type: functional, cell-based
[10] = Inhibition of porcine brain CK1-delta/epsilon using CSK peptide as substrate after 30 mins in presence of ATP by scintillation counting method; parameters: species or system Sus scrofa
[11] = target: Glycogen synthase kinase-3 (Sus scrofa) (UniProt B2LUN4+I6LNT8); assay: Inhibition of porcine brain GSK-3 alpha/beta at 10 uM using YRRAAVPPSPSLSRHSSPHQpSEDEEE as substrate after 30 mins in presence of ATP by scintillation counting method relative to control
MIA PaCa-2 [12] = assay: Cytotoxicity against human MIAPaCa2 cells by MTT assay; type: functional, cell-based
[13] = target: Cyclin-dependent kinase 5/CDK5 activator 1 (Homo sapiens) (UniProt Q00535+Q15078); assay: Inhibition of recombinant human CDK5/p25 expressed in Escherichia coli at 10 uM using histone H1 as substrate after 30 mins in presence of ATP by scintillation counting method relative to control
HEK293 = assay: Cytotoxicity against HEK293 cells by MTT assay; type: cell-based; conditions: Homo sapiens
[14] = target: CDK9/cyclin T1 (Homo sapiens) (UniProt O60563+P50750); assay: Inhibition of recombinant human CDK9/cyclin T expressed in insect cells at 10 uM using YSPTSPSYSPTSPSYSPTSPSKKKK as substrate after 30 mins in presence of ATP by scintillation counting method relative to control
HCT-15 [15] = assay: Cytotoxicity against human HCT15 cells by MTT assay; type: functional, cell-based
ZR-75-1 [16] = assay: Growth inhibition of human ZR-75-1 cells at 100 uM by MTT assay relative to control; type: functional; conditions: read-out: GI
[17] = target: Glycogen synthase kinase-3 (Sus scrofa, UniProt B2LUN4+I6LNT8); assay: Inhibition of porcine brain GSK-3 alpha/beta using YRRAAVPPSPSLSRHSSPHQpSEDEEE as substrate after 30 mins in presence of ATP by scintillation counting method
MDA-MB-468 [18] = assay: Cytotoxicity against human MDA-MB-468 cells by MTT assay; type: functional, cell-based
MCF7 [19] = assay: Cytotoxicity against human MCF7 cells by MTT assay; type: functional, cell-based
ZR-75-30 [20] = assay: Growth inhibition of human ZR-7530 cells at 100 uM by MTT assay relative to control; type: functional; conditions: read-out: GI
MCF7 [21] = assay: Growth inhibition of human MCF7 cells at 100 uM by MTT assay relative to control; type: functional; conditions: read-out: GI
MIA PaCa-2 [22] = assay: Growth inhibition of human MIAPaCa2 cells at 100 uM by MTT assay relative to control; type: functional; conditions: read-out: GI
A549 [23] = assay: Cytotoxicity against human A549 cells by MTT assay; type: functional, cell-based
BT-20 [24] = assay: Growth inhibition of human BT20 cells at 100 uM by MTT assay relative to control; type: functional; conditions: read-out: GI
A549 [25] = assay: Growth inhibition of human A549 cells at 100 uM by MTT assay relative to control; type: functional; conditions: read-out: GI
Asteroidea = assay: Inhibition of M-phase starfish oocytes CDK1/cyclin B at 10 uM using histone H1 as substrate after 30 mins in presence of ATP by scintillation counting method relative to control
Sus scrofa = species on record: Sus scrofa; assay: Inhibition of porcine brain CK1-delta/epsilon at 10 uM using CSK peptide as substrate after 30 mins in presence of ATP by scintillation counting method relative to control
[26] = target: CDK2/Cyclin A2 (Homo sapiens) (UniProt P24941+P20248); assay: Inhibition of recombinant human CDK2/cyclin A at 10 uM using histone H1 as substrate after 30 mins in presence of ATP by scintillation counting method relative to control; type: protein-complex assay
[27] = target: Dual specificity protein kinase CLK1 (Mus musculus, UniProt P22518); assay: Inhibition of recombinant mouse GST-fused CLK1 expressed in Escherichia coli using RS peptide as substrate after 30 mins in presence of ATP by scintillation counting method
PANC-1 [28] = assay: Growth inhibition of human PANC1 cells at 100 uM by MTT assay relative to control; type: functional; conditions: read-out: GI
CDK2/Cyclin A2 = CDK2/Cyclin A2 (Homo sapiens, UniProt P24941); assay: Inhibition of recombinant human CDK2/cyclin A using histone H1 as substrate after 30 mins in presence of ATP by scintillation counting method; type: protein-complex assay
HCT-15 [29] = assay: Growth inhibition of human HCT15 cells at 100 uM by MTT assay relative to control; type: functional; conditions: read-out: GI
[30] = target: Dual specificity tyrosine-phosphorylation-regulated kinase 1A (Homo sapiens) (UniProt Q13627); assay: Inhibition of recombinant full length human GST-fused DYRK1A expressed in Escherichia coli at 10 uM using RS peptide as substrate after 30 mins in presence of ATP by scintillation counting method relative to control
[31] = Growth inhibition of HEK293 cells at 100 uM by MTT assay relative to control; type: cell-based; conditions: human, read-out: GI

Cyclin-dependent kinase 5/CDK5 activator 1 (Homo sapiens), sequence (Q00535 whole entry): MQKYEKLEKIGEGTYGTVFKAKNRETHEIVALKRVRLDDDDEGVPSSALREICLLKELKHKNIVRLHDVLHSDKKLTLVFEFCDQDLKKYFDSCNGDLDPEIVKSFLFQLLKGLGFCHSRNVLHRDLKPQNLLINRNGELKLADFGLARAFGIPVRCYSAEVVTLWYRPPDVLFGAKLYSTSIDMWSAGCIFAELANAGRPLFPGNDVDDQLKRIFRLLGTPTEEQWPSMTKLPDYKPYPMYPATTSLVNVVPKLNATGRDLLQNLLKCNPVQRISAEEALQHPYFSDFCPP
Cyclin-dependent kinase 5/CDK5 activator 1 (Homo sapiens), sequence (Q15078 99-307 partner limits assumed): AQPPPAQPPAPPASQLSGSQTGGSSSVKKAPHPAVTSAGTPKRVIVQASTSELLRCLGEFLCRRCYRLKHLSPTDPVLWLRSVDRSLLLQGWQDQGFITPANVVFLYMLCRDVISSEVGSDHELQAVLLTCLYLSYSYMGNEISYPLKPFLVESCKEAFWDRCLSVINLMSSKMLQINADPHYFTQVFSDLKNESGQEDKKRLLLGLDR
Dual specificity protein kinase CLK1 (Mus musculus), sequence (P22518 whole entry, looked up, the tested form may be a part): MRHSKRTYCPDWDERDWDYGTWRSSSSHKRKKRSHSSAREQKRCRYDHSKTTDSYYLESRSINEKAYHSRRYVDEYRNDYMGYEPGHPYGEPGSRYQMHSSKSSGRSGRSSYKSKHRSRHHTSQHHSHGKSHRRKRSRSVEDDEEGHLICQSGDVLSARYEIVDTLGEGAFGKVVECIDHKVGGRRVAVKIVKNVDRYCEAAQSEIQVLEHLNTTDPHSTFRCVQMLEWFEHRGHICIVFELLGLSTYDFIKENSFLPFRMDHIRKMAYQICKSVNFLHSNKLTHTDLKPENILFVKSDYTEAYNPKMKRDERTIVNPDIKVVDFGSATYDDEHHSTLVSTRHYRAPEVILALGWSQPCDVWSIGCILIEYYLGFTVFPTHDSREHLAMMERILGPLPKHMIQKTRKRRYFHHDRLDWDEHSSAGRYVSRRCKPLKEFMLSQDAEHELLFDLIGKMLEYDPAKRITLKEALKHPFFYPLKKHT
Dual specificity protein kinase CLK1, sequence (P22518 whole entry, the tested form may be a part): as the sequence (P22518 whole entry, looked up, the tested form may be a part) above

Structure (SMILES) | inhibition of growth at 100 µM (DU-145) [%] | inhibition of growth at 100 µM (MDA-MB-231 [1]) [%] | IC50 (BT-20 [2]) [µM] | inhibition of growth at 100 µM (MDA-MB-468 [3]) [%] | IC50 (ZR-75-1 [4]) [µM] | IC50 (PANC-1 [5]) [µM] | IC50 (ZR-75-30 [6]) [µM] | inhibition [7] [%] | IC50 [8] [µM] | IC50 (MDA-MB-231 [9]) [µM] | IC50 [10] [µM] | inhibition [11] [%] | IC50 (MIA PaCa-2 [12]) [µM] | inhibition [13] [%] | IC50 (HEK293) [µM] | inhibition [14] [%] | IC50 (HCT-15 [15]) [µM] | inhibition of growth at 100 µM (ZR-75-1 [16]) [%] | IC50 [17] [µM] | IC50 (CDK2/Cyclin A2) [µM] | other results
COc1cc2ncnc(Nc3n[nH]cc3C#N)c2cc1OC | > 50 | > 50 | > 100 | > 50 | > 100 | > 100 | > 100 | > 50 | > 10 | > 100 | < 10 | > 50 | > 100 | > 50 | > 100 | > 50 | > 100 | > 50 | > 10 | > 10 | IC50 (MDA-MB-468 [18]): > 100 µM; IC50 (MCF7 [19]): > 100 µM; inhibition of growth at 100 µM (ZR-75-30 [20]): > 50%; inhibition of growth at 100 µM (MCF7 [21]): > 50%; inhibition of growth at 100 µM (MIA PaCa-2 [22]): > 50%; IC50 (A549 [23]): > 100 µM; inhibition of growth at 100 µM (BT-20 [24]): > 50%; inhibition of growth at 100 µM (A549 [25]): > 50%; inhibition (Asteroidea): > 50%; inhibition (Sus scrofa): > 50%; inhibition [26]: > 50%; IC50 [27]: > 10 µM; inhibition of growth at 100 µM (PANC-1 [28]): > 50%; inhibition of growth at 100 µM (HCT-15 [29]): > 50%; inhibition [30]: > 50%; inhibition at 100 µM [31]: > 50%
COc1cc2ncnc(Nc3cc(-c4ccccc4)[nH]n3)c2cc1OC | > 50 | > 50 | > 100 | > 50 | > 100 | 9.3 | > 100 | > 50 | > 10 | > 100 | 1.6 | > 50 | > 100 | > 50 | 71.1 | > 50 | > 100 | > 50 | > 10 | > 10 | IC50 (MDA-MB-468 [18]): > 100 µM; IC50 (MCF7 [19]): > 100 µM; inhibition of growth at 100 µM (ZR-75-30 [20]): > 50%; inhibition of growth at 100 µM (MCF7 [21]): > 50%; inhibition of growth at 100 µM (MIA PaCa-2 [22]): > 50%; IC50 (A549 [23]): 29.7 µM; inhibition of growth at 100 µM (BT-20 [24]): > 50%; inhibition of growth at 100 µM (A549 [25]): > 50%; inhibition (Asteroidea): > 50%; inhibition (Sus scrofa): > 50%; inhibition [26]: > 50%; IC50 [27]: > 10 µM; inhibition of growth at 100 µM (PANC-1 [28]): > 50%; inhibition of growth at 100 µM (HCT-15 [29]): > 50%; inhibition [30]: > 50%; inhibition at 100 µM [31]: > 50%
COc1ccc2c(c1)[nH]c1c(C)nccc12 [HARMINE] |  |  |  |  |  |  |  |  | > 10 |  |  |  |  |  |  |  |  |  | > 10 | > 10 | 
